Test results taken from patent US7320975B2, “2-(2-pyridyl)-5-phenyl-6-aminopyrimidine, method and intermediate products for the production and use thereof for combating noxious fungi” (BASF Aktiengesellschaft, priority 2002, dated 2008).

Assay: Lipophilicity parameter log Pow by RP HPLC run time method (OECD test guidelines)
Type: physicochemical
Experimental: The determination of the lipophilicity parameter log Pow (Table I) was carried out in accordance with OECD test guidelines using the RP HPLC run time method.
To this end, a log k′/log Pow correlation curve based on ten reference substances was plotted and was validated with the help of the lipophilicity parameters of eight comparison substances established through the extraction method.
A commercially available reversed-phase C18 stationary phase was used as stationary phase. Chromatographic separation was carried out with methanol and a buffer solution as mobile phase at pH 7.4 under isocratic conditions.
The retention times of the standards tR were converted in accordance with equation Φ into the capacity factors k′, in which t0, as reaction time of the solvent unretarded on the reversed-phase C18 stationary phase, represents the dead time of the chromatographic system:
The linear correlation of the log k′ values with the log Pow values of the standards published in the appendix to the guidelines 92/69/EEC yields the correlation curve through linear regression.
The lipophilicity parameters log Pow of the analytes were after calculation of the logarithmic capacity factor log k′ interpolated from the correlation curve of the standards.

[1] = RP HPLC run time method (OECD test guidelines)
[2] = RP HPLC run time method, OECD test guidelines

Q: With `CC(C)[C@@H](C)Nc1nc(-c2ccccn2)nc(Cl)c1-c1c(F)cccc1F` [I-84] as the molecule, how does the “log Pow” value [1] read?
A: logP 5.0

Q: And the “log Pow” value [2]?
A: logP 5.0

Q: Which “log Pow” value [1] does the source give for `C[C@@H](Nc1nc(-c2ccccn2)nc(Cl)c1-c1c(F)cccc1Cl)C(C)(C)C` [I-7] here?
A: log Pow 4.8

Q: What about the “log Pow” value [2] of the same molecule?
A: logPow 4.8

Q: For `Cc1ccc(-c2c(Cl)nc(-c3ccccn3)nc2NC(C)C)c(F)c1` [I-94], which “log Pow” value [1] is on record?
A: logP 4.8

Q: And the “log Pow” value [2]?
A: logP 4.8

Q: With `CCN(CC)c1nc(-c2ccccn2)nc(Cl)c1-c1c(F)cccc1F` [I-81] as the molecule, how does the “log Pow” value [1] read?
A: logP 4.7

Q: And the “log Pow” value [2]?
A: logP 4.7

Q: With `CC(C)[C@H](C)Nc1nc(-c2ccccn2)nc(Cl)c1-c1c(F)cccc1F` [I-82] as the molecule, how does the “log Pow” value [1] read?
A: logP 5.0

Q: What about the “log Pow” value [2] of the same molecule?
A: logP 5.0

Q: Which results are given for `CCN(CC)c1nc(-c2ccccn2)nc(Cl)c1-c1c(F)cccc1Cl` [I-5]?
A: log Pow [1]: log Pow 4.23; log Pow [2]: logPow 4.23

Q: Which “log Pow” value [1] does the source give for `CCN(CC)c1nc(-c2ccccn2)nc(Cl)c1-c1c(F)cc(F)cc1F` [1-9] here?
A: log Pow 4.08

Q: With `CCN(CC)c1nc(-c2ncccc2C)nc(Cl)c1-c1c(F)cc(F)cc1F` [I-117] as the molecule, how does the “log Pow” value [1] read?
A: logP 4.6

Q: What about the “log Pow” value [2] of the same molecule?
A: logP 4.6

Q: Which “log Pow” value [1] does the source give for `CCN(CC)c1nc(-c2ccccn2)nc(Cl)c1-c1c(F)cc(OC)cc1F` [I-64] here?
A: logP 5.0

Q: And the “log Pow” value [2]?
A: logP 5.0

Q: Which “log Pow” value [1] does the source give for `CCNc1nc(-c2ccccn2)nc(Cl)c1-c1ccc(F)cc1C` [I-114] here?
A: logP 4.1

Q: And the “log Pow” value [2]?
A: logP 4.1

Q: For `CCNc1nc(-c2ccccn2)nc(Cl)c1-c1ccc(C)cc1C` [I-90], which “log Pow” value [1] is on record?
A: logP 4.6

Q: And the “log Pow” value [2]?
A: logP 4.6

Q: For `C[C@H](Nc1nc(-c2ccccn2)nc(Cl)c1-c1c(F)cc(F)cc1F)C(C)(C)C` [1-10], which “log Pow” value [1] is on record?
A: log Pow 4.75

Q: For `CCN(CC)c1nc(-c2ccccn2)nc(Cl)c1-c1c(F)cc(F)cc1F` [I-9], which “log Pow” value [2] is on record?
A: logPow 4.08

Q: For `C[C@H](Nc1nc(-c2ccccn2)nc(Cl)c1-c1c(F)cc(F)cc1F)C(F)(F)F` [I-12], which “log Pow” value [1] is on record?
A: log Pow 4.5

Q: And the “log Pow” value [2]?
A: logPow 4.5

Q: With `CC(C)Nc1nc(-c2ccccn2)nc(Cl)c1-c1c(F)cccc1F` [I-83] as the molecule, how does the “log Pow” value [1] read?
A: logP 4.1

Q: What about the “log Pow” value [2] of the same molecule?
A: logP 4.1

Q: Which “log Pow” value [1] does the source give for `CCNc1nc(-c2ccccn2)nc(Cl)c1-c1c(F)cc(OC)cc1F` [I-65] here?
A: logP 4.0

Q: What about the “log Pow” value [2] of the same molecule?
A: logP 4.0

Q: For `CC(C)Nc1nc(-c2ccccn2)nc(Cl)c1-c1c(F)cc(O)cc1F` [I-70], which “log Pow” value [1] is on record?
A: log.P 3.0

Q: And the “log Pow” value [2]?
A: log.P 3.0

Q: Which results are given for `CC(C)Nc1nc(-c2ccccn2)nc(Cl)c1-c1c(F)cccc1Cl` [I-3]?
A: log Pow [1]: log Pow 3.59; log Pow [2]: logPow 3.59

Q: For `C=C(C)CN(CC)c1nc(-c2ccccn2)nc(Cl)c1-c1c(F)cccc1Cl` [I-2], which “log Pow” value [1] is on record?
A: log Pow 4.73

Q: What about the “log Pow” value [2] of the same molecule?
A: logPow 4.73

Q: With `Cc1cccc(-c2nc(Cl)c(-c3c(F)cc(F)cc3F)c(N3CCOCC3)n2)n1` [I-24] as the molecule, how does the “log Pow” value [1] read?
A: log Pow 4.25

Q: What about the “log Pow” value [2] of the same molecule?
A: logPow 4.25
